Test results from ChEMBL document CHEMBL1201862, “PubChem BioAssay data set” (2004).
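Cells were grown in 96-well plates and exposed to each compound for 48 hours at five concentrations; endpoints were interpolated linearly between bracketing concentrations, or set to the highest concentration if not reached. GI50 is the concentration that inhibits growth by half.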 Active and inactive are the calls of the source. No stated cut-off is given here; in the data, active = GI50 up to about 1.1 µM and inactive = higher.

Tests used:
Assay in all cases: NCI anticancer screen, dose series, 48 h
RPMI-8226 = test system: RPMI-8226
NCI-H522 = test system: NCI-H522
SNB-19 = test system: SNB-19
SR = test system: SR
HOP-92 = test system: HOP-92
OVCAR-5 = test system: OVCAR-5
IGROV-1 = test system: IGROV-1
EKVX = test system: EKVX
TK-10 = test system: TK-10
OVCAR-8 = test system: OVCAR-8
Malme-3M = test system: Malme-3M
SNB-75 = test system: SNB-75
NCI-H23 = test system: NCI-H23
HCT-15 = test system: HCT-15
A549 = test system: A549
HOP-62 = test system: HOP-62
HCC 2998 = test system: HCC 2998
KM12 = test system: KM12
M19-MEL = test system: M19-MEL
SF-539 = test system: SF-539
U-251 = test system: U-251
SF-268 = test system: SF-268
SNB-78 = test system: SNB-78
OVCAR-4 = test system: OVCAR-4
UO-31 = test system: UO-31
COLO 205 = test system: COLO 205
HOP-18 = test system: HOP-18
OVCAR-3 = test system: OVCAR-3
ACHN = test system: ACHN
KM-20L2 = test system: KM-20L2
HT-29 = test system: HT-29
A498 = test system: A498
HCT-116 = test system: HCT-116
SK-MEL-2 = test system: SK-MEL-2
RXF 393 = test system: RXF 393
K562 = test system: K562
DMS-114 = test system: DMS-114
SF-295 = test system: SF-295
LOX IMVI = test system: LOX IMVI
DLD-1 = test system: DLD-1
NCI-H460 = test system: NCI-H460
XF498 = test system: XF498
SK-MEL-28 = test system: SK-MEL-28
MOLT-4 = test system: MOLT-4
LXFL 529 = test system: LXFL 529
HL-60 = test system: HL-60
SW-620 = test system: SW-620
SN12C = test system: SN12C
NCI-H226 = test system: NCI-H226
UACC-257 = test system: UACC-257
786-0 = test system: 786-0
CCRF-CEM = test system: CCRF-CEM
M14 = test system: M14
UACC-62 = test system: UACC-62
SK-MEL-5 = test system: SK-MEL-5
SK-OV-3 = test system: SK-OV-3
DMS-273 = test system: DMS-273
CAKI-1 = test system: CAKI-1

## NCCn1ccc(NC(c2ccccc2)(c2ccccc2)c2ccccc2)nc1=O
RPMI-8226
  GI50: 18.6 µM (inactive)
NCI-H522
  GI50: 18.1 µM (inactive)
SNB-19
  GI50: > 10 µM (inactive)
SR
  GI50: 19.4 µM (inactive)
HOP-92
  GI50: 13.4 µM (inactive)
OVCAR-5
  GI50: > 100 µM (inactive)
IGROV-1
  GI50: 40.7 µM (inactive)
EKVX
  GI50: 21.3 µM (inactive)
TK-10
  GI50: 30 µM (inactive)
OVCAR-8
  GI50: 39.8 µM (inactive)
Malme-3M
  GI50: 18.6 µM (inactive)
SNB-75
  GI50: 16.7 µM (inactive)
NCI-H23
  GI50: > 10 µM (inactive)
HCT-15
  GI50: > 100 µM
A549
  GI50: 25.2 µM (inactive)
HOP-62
  GI50: 30.1 µM (inactive)
HCC 2998
  GI50: 18 µM (inactive)
KM12
  GI50: 21.7 µM (inactive)
M19-MEL
  GI50: 20.9 µM (inactive)
SF-539
  GI50: 17 µM (inactive)
U-251
  GI50: 20.7 µM (inactive)
SF-268
  GI50: 16.3 µM (inactive)
SNB-78
  GI50: 20.6 µM (inactive)
OVCAR-4
  GI50: 36.3 µM (inactive)
UO-31
  GI50: > 100 µM (inactive)
COLO 205
  GI50: 29.8 µM (inactive)
HOP-18
  GI50: > 100 µM (inactive)
OVCAR-3
  GI50: 25.8 µM (inactive)
ACHN
  GI50: 54.7 µM (inactive)
KM-20L2
  GI50: 15.7 µM (inactive)
HT-29
  GI50: 16.9 µM (inactive)
A498
  GI50: 65.5 µM (inactive)
HCT-116
  GI50: 18.2 µM (inactive)
SK-MEL-2
  GI50: 18.7 µM (inactive)
RXF 393
  GI50: 4.08 µM (inactive)
K562
  GI50: 20.1 µM (inactive)
DMS-114
  GI50: 18.6 µM (inactive)
SF-295
  GI50: 19.8 µM (inactive)
LOX IMVI
  GI50: 16.4 µM (inactive)
DLD-1
  GI50: 63.1 µM (inactive)
NCI-H460
  GI50: 20.3 µM (inactive)
XF498
  GI50: 13.4 µM (inactive)
SK-MEL-28
  GI50: 20.2 µM (inactive)
MOLT-4
  GI50: 19 µM (inactive)
LXFL 529
  GI50: 16.7 µM (inactive)
HL-60
  GI50: 17.7 µM (inactive)
SW-620
  GI50: 19.1 µM (inactive)
SN12C
  GI50: 20.3 µM (inactive)
NCI-H226
  GI50: 15.8 µM (inactive)
UACC-257
  GI50: 19.5 µM (inactive)
786-0
  GI50: 17.3 µM (inactive)

## O/N=C\C(=N/O)Nc1ccc(Cc2ccc(NC(/C=N\O)=N/O)cc2)cc1
CCRF-CEM
  GI50: 45.4 µM (inactive)
RPMI-8226
  GI50: 30.5 µM (inactive)
NCI-H522
  GI50: 29.6 µM (inactive)
SNB-19
  GI50: 97.9 µM (inactive)
HOP-92
  GI50: 25.8 µM (inactive)
OVCAR-5
  GI50: 89.9 µM (inactive)
IGROV-1
  GI50: 34.4 µM (inactive)
EKVX
  GI50: 25.4 µM (inactive)
TK-10
  GI50: 45.2 µM (inactive)
OVCAR-8
  GI50: 36.1 µM (inactive)
Malme-3M
  GI50: 24.7 µM (inactive)
M14
  GI50: 27.5 µM (inactive)
NCI-H23
  GI50: 55.5 µM (inactive)
HCT-15
  GI50: 75.3 µM
UACC-62
  GI50: 21.2 µM (inactive)
A549
  GI50: 87.5 µM (inactive)
HOP-62
  GI50: 27.4 µM (inactive)
HCC 2998
  GI50: 83.9 µM (inactive)
KM12
  GI50: 54 µM (inactive)
M19-MEL
  GI50: 47 µM (inactive)
SF-539
  GI50: 45.2 µM (inactive)
U-251
  GI50: 37.5 µM (inactive)
SK-MEL-5
  GI50: 48.3 µM (inactive)
SK-OV-3
  GI50: 33.2 µM (inactive)
DMS-273
  GI50: 43.9 µM (inactive)
SF-268
  GI50: > 100 µM (inactive)
SNB-78
  GI50: > 100 µM (inactive)
OVCAR-4
  GI50: 57.9 µM (inactive)
UO-31
  GI50: 13.2 µM (inactive)
COLO 205
  GI50: 54.7 µM (inactive)
HOP-18
  GI50: 37.9 µM (inactive)
OVCAR-3
  GI50: 42.3 µM (inactive)
ACHN
  GI50: 31.6 µM (inactive)
KM-20L2
  GI50: 44.3 µM (inactive)
HT-29
  GI50: 60.5 µM (inactive)
A498
  GI50: 77.4 µM (inactive)
HCT-116
  GI50: 79.4 µM (inactive)
SK-MEL-2
  GI50: 50.7 µM (inactive)
CAKI-1
  GI50: 18.8 µM (inactive)
K562
  GI50: 37.9 µM (inactive)
DMS-114
  GI50: 69.3 µM (inactive)
SF-295
  GI50: 21.7 µM (inactive)
LOX IMVI
  GI50: 40.6 µM (inactive)
DLD-1
  GI50: 23.9 µM (inactive)
NCI-H460
  GI50: 34.8 µM (inactive)
XF498
  GI50: 71.3 µM (inactive)
SK-MEL-28
  GI50: > 100 µM (inactive)
MOLT-4
  GI50: 30.8 µM (inactive)
LXFL 529
  GI50: 39.4 µM (inactive)
HL-60
  GI50: 22.5 µM (inactive)
SW-620
  GI50: 52.1 µM (inactive)
SN12C
  GI50: 35.3 µM (inactive)
NCI-H226
  GI50: 18.1 µM (inactive)
UACC-257
  GI50: 56.1 µM (inactive)
786-0
  GI50: 58.6 µM (inactive)
